≈ marks a conversion by molar mass, not a printed value.
Legend:
[1] = tested on: Gram-positive and Gram-negative organisms; conditions: disclosed in earlier patents; cited from earlier work
mycoplasma organisms = conditions: disclosed in earlier patents; cited from earlier work
K. aerogenes A = experiment: MIC by serial dilution in nutrient agar (human bacteria, Table 1); format: cell-based; conditions: Klebsiella aerogenes, 5% "chocolated" horse blood
Ps. aeruginosa 10662 = experiment: as above; format: cell-based; conditions: Pseudomonas aeruginosa, 5% "chocolated" horse blood
Strep.faecalis I = experiment: as above; format: cell-based; conditions: Enterococcus faecalis, 5% "chocolated" horse blood
[2] = tested on: Neisseria catarrhalis 1502; experiment: as above; format: cell-based; conditions: 5% "chocolated" horse blood
[3] = tested on: Pasteurella multocida 1633; experiment: as above; format: cell-based; conditions: Pasteurella multocida 1633; nutrient agar, 5% "chocolated" horse blood; read-out: MIC
Strep.pyogenes B 2788 = experiment: as above; format: cell-based; conditions: Streptococcus pyogenes, B2788, 5% "chocolated" horse blood
M.suipneumoniae Str.11 = experiment: Anti-mycoplasmal MIC in Friis broth solidified with agarose (Table 3); format: cell-based; conditions: Mesomycoplasma hyopneumoniae, 144 h, 6 days, 37° C., read-out: in vitro MIC
Protocol: (§1) ^+ Determined in Friis broth solidified with 0.9% agarose. The
(§2) inoculum was 10^3 to 10^5 C.F.U. MIC's were recorded after 6 days

M.hyorhinis ATCC 23234 = experiment: as above; format: cell-based; conditions: Mesomycoplasma hyorhinis, ATCC23234, 144 h, 6 days, 37° C., read-out: in vitro MIC
Protocol: as §1, §2

[4] = tested on: M.suipneumoniae J2206/183b; experiment: as above; format: cell-based; conditions: Mesomycoplasma hyopneumoniae, 144 h, 6 days, 37° C., read-out: in vitro MIC
Protocol: as §1, §2

[5] = tested on: M.pneumoniae (Mac) ATCC 15492; experiment: as above; format: cell-based; conditions: Mycoplasmoides pneumoniae, ATCC15492, 144 h, 6 days, 37° C., read-out: in vitro MIC
Protocol: as §1, §2

M.hyosynoviae ATCC 25591 = experiment: as above; format: cell-based; conditions: 144 h, 6 days, 37° C., read-out: in vitro MIC
Protocol: as §1, §2

M.dispar NCTC 10125 = experiment: as above; format: cell-based; conditions: 144 h, 6 days, 37° C., read-out: in vitro MIC
Protocol: as §1, §2

M.bovis NCTC 10131 = experiment: as above; format: cell-based; conditions: NCTC10131, 144 h, read-out: in vitro MIC
Protocol: as §1, §2

Strep.pyogenes C 2761 = experiment: MIC by serial dilution in nutrient agar (human bacteria, Table 1); format: cell-based; conditions: Streptococcus pyogenes, C2761, 5% "chocolated" horse blood
Strep.pneumoniae CN33 = experiment: as above; format: cell-based; conditions: Streptococcus pneumoniae, 5% "chocolated" horse blood
[6] = tested on: Haemophilus influenzae Q1; experiment: as above; format: cell-based; conditions: Haemophilus influenzae Q1; nutrient agar, 5% "chocolated" horse blood; read-out: MIC
Strep.pyogenes A 64/848 = experiment: as above; format: cell-based; conditions: Streptococcus pyogenes, A64/848, 5% "chocolated" horse blood
E.coli ESS = experiment: as above; format: cell-based; conditions: Escherichia coli, 5% "chocolated" horse blood
Staph.aureus Russell = experiment: as above; format: cell-based; conditions: Staphylococcus aureus
E.coli NCTC 10418 [7] = experiment: as above; format: cell-based; conditions: Escherichia coli, NCTC10418, 5% "chocolated" horse blood
Staph.aureus Oxford [8] = experiment: as above; format: cell-based; conditions: Staphylococcus aureus
Bacillus subtilis 6633 = experiment: as above; format: cell-based; conditions: 5% "chocolated" horse blood
P. mirabilis 889 = experiment: as above; format: cell-based; conditions: Proteus mirabilis, 5% "chocolated" horse blood
[9] = tested on: Strep.suis (group D) SPS11; experiment: MIC by agar dilution (veterinary bacteria, Table 2); format: cell-based; conditions: Streptococcus suis, diagnostic sensitivity test agar, 24 hours, 37° C.
Protocol: (§3) The MIC values were determined by agar dilution using diagnostic sensitivity test agar (Oxoid) using a multipoint inoculator delivering 0.001 ml of an inoculum adjusted to give 10^7 -10^8 organisms per ml and read after 24 hours incubation at 37° C.

E.coli E1 = experiment: as above; format: cell-based; conditions: Escherichia coli, diagnostic sensitivity test agar, 24 hours, 37° C.
Protocol: as §3

Strep.dysgalactiae SPD1 = experiment: as above; format: cell-based; conditions: Streptococcus dysgalactiae, diagnostic sensitivity test agar, 24 hours, 37° C.
Protocol: as §3

Bord.bronchiseptica BO8 = experiment: as above; format: cell-based; conditions: Bordetella bronchiseptica, diagnostic sensitivity test agar, 24 hours, 37° C.
Protocol: as §3

[10] = tested on: Corynebacterium pyogenes CY1; experiment: as above; format: cell-based; conditions: Trueperella pyogenes, diagnostic sensitivity test agar, 24 hours, 37° C.
Protocol: as §3

Strep.agalactiae SPA1 = experiment: as above; format: cell-based; conditions: Streptococcus agalactiae, diagnostic sensitivity test agar, 24 hours, 37° C.
Protocol: as §3

Bord.bronchiseptica BO9 = experiment: as above; format: cell-based; conditions: Bordetella bronchiseptica, diagnostic sensitivity test agar, 24 hours, 37° C.
Protocol: as §3

Staph.aureus Oxford [11] = experiment: as above; format: cell-based; conditions: Staphylococcus aureus, diagnostic sensitivity test agar, 24 hours, 37° C.
Protocol: as §3

S.dublin S7 = experiment: as above; format: cell-based; conditions: Salmonella enterica, diagnostic sensitivity test agar, 24 hours, 37° C.
Protocol: as §3

[12] = tested on: Erysipelothrix rhusiopathiae NCTC 8163; experiment: as above; format: cell-based; conditions: NCTC8163, diagnostic sensitivity test agar, 24 hours, 37° C.
Protocol: as §3

Past.multocida PA2 = experiment: as above; format: cell-based; conditions: Pasteurella multocida, diagnostic sensitivity test agar, 24 hours, 37° C.
Protocol: as §3

[13] = tested on: Staph.aureus 152 (pen sens); experiment: as above; format: cell-based; conditions: Staphylococcus aureus, diagnostic sensitivity test agar, 24 hours, 37° C.
Protocol: as §3

Past.haemolytica PA5 = experiment: as above; format: cell-based; conditions: Mannheimia haemolytica, diagnostic sensitivity test agar, 24 hours, 37° C.
Protocol: as §3

S.typhimurium S18 = experiment: as above; format: cell-based; conditions: Salmonella enterica, diagnostic sensitivity test agar, 24 hours, 37° C.
Protocol: as §3

Past.multocida PA1 = experiment: as above; format: cell-based; conditions: Pasteurella multocida, diagnostic sensitivity test agar, 24 hours, 37° C.
Protocol: as §3

Strep.uberis SPU1 = experiment: as above; format: cell-based; conditions: Streptococcus uberis, diagnostic sensitivity test agar, 24 hours, 37° C.
Protocol: as §3

[14] = tested on: Staph.aureus B4 (pen resis); experiment: as above; format: cell-based; conditions: Staphylococcus aureus, diagnostic sensitivity test agar, 24 hours, 37° C.
Protocol: as §3

E.coli NCTC 10418 [15] = experiment: as above; format: cell-based; conditions: Escherichia coli, NCTC10418, diagnostic sensitivity test agar, 24 hours, 37° C.
Protocol: as §3

[16] = tested on: Haemophilus influenzae Wy21; experiment: MIC by serial dilution in nutrient agar (human bacteria, Table 1); format: cell-based; conditions: 5% "chocolated" horse blood
Staph. aureus W2827 = experiment: MIC by serial dilution in nutrient agar (human bacteria, Table 1, footnote b); format: cell-based; conditions: Staphylococcus aureus, Staph. aureus W2827 (footnote b, in line Staph.aureus 1517), 5% "chocolated" horse blood

Question: With `C/C(=C\C(=O)O)CC1OCC(CC2OC2C(C)C(C)O)C(O)C1O` (stereo not drawn) [monic acid A] as the compound, how does the antibacterial activity [1] read?
Answer: does not appear to have antibacterial or anti-mycoplasmal activity

Question: And the anti-mycoplasmal activity (mycoplasma organisms)?
Answer: does not appear to have antibacterial or anti-mycoplasmal activity

Question: For `CCOC(=O)C=C(C)CC1OCC(CC2OC2C(C)C(C)=O)C(O)C1O` (stereo not drawn) [Example 5, Ethyl 4-(5-(2,3-epoxy-4-methylhexan-5-onyl)-3,4-dihydroxytetrahydropyran-2-yl)-3-methylbut-2-enoate], which MIC (K. aerogenes A) is on record?
Answer: > 100 µg/mL

Question: And the MIC (Ps. aeruginosa 10662)?
Answer: > 100 µg/mL

Question: What about the MIC (Strep.faecalis I) of the same compound?
Answer: > 100 µg/mL

Question: And the MIC [2]?
Answer: 2.5 µg/mL (≈ 6.75 µM)

Question: And the MIC [3]?
Answer: 10 µg/mL (≈ 27 µM)

Question: What about the MIC (Strep.pyogenes B 2788) of the same compound?
Answer: 50 µg/mL (≈ 135 µM)

Question: And the MIC (M.suipneumoniae Str.11)?
Answer: 2.5 µg/mL (≈ 6.75 µM)

Question: What about the MIC (M.hyorhinis ATCC 23234) of the same compound?
Answer: 5 µg/mL (≈ 13.5 µM)

Question: What about the MIC [4] of the same compound?
Answer: 5 µg/mL (≈ 13.5 µM)

Question: What about the MIC [5] of the same compound?
Answer: > 10 µg/mL

Question: What about the MIC (M.hyosynoviae ATCC 25591) of the same compound?
Answer: 2.5 µg/mL (≈ 6.75 µM)

Question: What about the MIC (M.dispar NCTC 10125) of the same compound?
Answer: 1 µg/mL (≈ 2.7 µM)

Question: And the MIC (M.bovis NCTC 10131)?
Answer: 0.1 µg/mL (≈ 0.27 µM)

Question: And the MIC (Strep.pyogenes C 2761)?
Answer: 100 µg/mL (≈ 270 µM)

Question: And the MIC (Strep.pneumoniae CN33)?
Answer: 10 µg/mL (≈ 27 µM)

Question: And the MIC [6]?
Answer: 1 µg/mL (≈ 2.7 µM)

Question: And the MIC (Strep.pyogenes A 64/848)?
Answer: 50 µg/mL (≈ 135 µM)

Question: What about the MIC (E.coli ESS) of the same compound?
Answer: 10 µg/mL (≈ 27 µM)

Question: And the MIC (Staph.aureus Russell)?
Answer: 5 µg/mL (≈ 13.5 µM)

Question: And the MIC (E.coli NCTC 10418 [7])?
Answer: > 100 µg/mL

Question: What about the MIC (Staph.aureus Oxford [8]) of the same compound?
Answer: 5 µg/mL (≈ 13.5 µM)

Question: What about the MIC (Bacillus subtilis 6633) of the same compound?
Answer: 10 µg/mL (≈ 27 µM)

Question: What about the MIC (P. mirabilis 889) of the same compound?
Answer: 100 µg/mL (≈ 270 µM)

Question: And the MIC [9]?
Answer: > 80 µg/mL

Question: And the MIC (E.coli E1)?
Answer: > 80 µg/mL

Question: And the MIC (Strep.dysgalactiae SPD1)?
Answer: 20 µg/mL (≈ 54 µM)

Question: What about the MIC (Bord.bronchiseptica BO8) of the same compound?
Answer: > 80 µg/mL

Question: And the MIC [10]?
Answer: > 80 µg/mL

Question: What about the MIC (Strep.agalactiae SPA1) of the same compound?
Answer: 20 µg/mL (≈ 54 µM)

Question: What about the MIC (Bord.bronchiseptica BO9) of the same compound?
Answer: 80 µg/mL (≈ 216 µM)

Question: And the MIC (Staph.aureus Oxford [11])?
Answer: 0.625 µg/mL (≈ 1.69 µM)

Question: And the MIC (S.dublin S7)?
Answer: > 80 µg/mL

Question: What about the MIC [12] of the same compound?
Answer: > 80 µg/mL

Question: And the MIC (Past.multocida PA2)?
Answer: 0.625 µg/mL (≈ 1.69 µM)

Question: What about the MIC [13] of the same compound?
Answer: 0.625 µg/mL (≈ 1.69 µM)

Question: And the MIC (Past.haemolytica PA5)?
Answer: 10 µg/mL (≈ 27 µM)

Question: And the MIC (S.typhimurium S18)?
Answer: > 80 µg/mL

Question: And the MIC (Past.multocida PA1)?
Answer: 2.5 µg/mL (≈ 6.75 µM)

Question: What about the MIC (Strep.uberis SPU1) of the same compound?
Answer: 2.5 µg/mL (≈ 6.75 µM)

Question: What about the MIC [14] of the same compound?
Answer: 0.625 µg/mL (≈ 1.69 µM)

Question: And the MIC (E.coli NCTC 10418 [15])?
Answer: > 80 µg/mL

Question: And the MIC [16]?
Answer: 1 µg/mL (≈ 2.7 µM)

Question: What about the MIC (Staph. aureus W2827) of the same compound?
Answer: 5 µg/mL (≈ 13.5 µM)

Reference: patent US4374147A, “13-Oxo-monic acid esters useful as antibacterial and antimycoplasmal agents” (Beecham Group Limited, priority 1980, dated 1983)
